This is an account of results in patent US8106099B2, “Combination of phenylcarboxamides with blockers of the IKr channel and their use for the treatment of atrial arrhythmias” (Sanofi-Aventis Deutschland GmbH, priority 2003, dated 2012).

“Also recorded” adds a separate entry of the source.

The test system of test [1] is normal and remodeled atria of goats. Nature of the test: Investigation of the refractory period (AERP) in normal goats and in goats with remodeled atria. The class given is in vivo. The settings on record: for effect on the AERP in remodeled atrium compared with normal atrium: remodeled versus normal atrium. Here is the method:
Investigation of the Refractory Period in Normal Goats and in Goats with Remodeled Atria
This electrical remodeling, which reflects the situation in the patient, was achieved by repetitive atrial stimulations as published by Wijffels et al. (Atrial fibrillation begets atrial fibrillation. A study in awake chronical instrumented goats. Circulation 1995, 92, 1954-68).
In the monotherapy, 0.12 mg of ibutilide per kg of bodyweight was administered over the length of time of 60 minutes (0.002 mg per kg per minute).
A similar infusion scheme was carried out on 5 further animals with dofetilide instead of ibutilide. […] In the monotherapy, 0.12 mg of dofetilide per kg of bodyweight was administered over the length of time of 60 minutes (0.002 mg per kg per minute).

Test [2] concerns goats in persistent atrial fibrillation. The test is described as follows: Investigation of cardioversion and AFCL in chronically fibrillating goats (two goats). The class given is in vivo. The following applies: for effect on the AFCL by the substance on its own (in words) / cardioversion / termination of persistent fibrillation by the substance on its own: persistent AF goat model; for cardioversion / termination of persistent fibrillation by the substance on its own: example 1 at 0.1-10 mg/kg/h in the goat of table 4. The protocol: Investigation of Cardioversion in Chronically Fibrillating Goats
Experiments were carried out on two goats which were in persistent atrial fibrillation of more than 45 days.
The measurements of the AFCL and of the cardioversion were carried out successively.

Turning to `CN(CCOc1ccc(NS(C)(=O)=O)cc1)CCc1ccc(NS(C)(=O)=O)cc1` [Dofetilide], the “prolongation of the AERP” value in test [1] (remodeled atria, n=5 goats, dofetilide study) stood at 7 ms. Also, the “effect on the AERP in remodeled atrium compared with normal atrium” value (shortened to “effect … compared with normal atrium”) in test [1] is “markedly lower”. Also, in test [2], the “effect on the AFCL by the substance on its own (in words)” value (from here on “effect on the AFCL by the substance”) is “slight prolongation” and the “cardioversion / termination of persistent fibrillation by the substance on its own” value (“cardioversion / termination … on its own” for short) is given as “a cardioversion does not occur; also recorded: not to a termination of the fibrillation”.

Turning to `COc1ccc(CC(=O)NCc2ccccc2-c2ccccc2C(=O)NCCc2cccnc2)cc1` [Example 1, 2′-{[2-(4-Methoxyphenyl)acetylamino]methyl}biphenyl-2-carboxylic acid (2-pyridin-3-ylethyl)amide], the “prolongation of the AERP” value in test [1] (normal atria, n=5 goats, dofetilide study) was determined as 51 ms. The “prolongation of the AERP” value in test [1] (normal atria, n=7 goats, ibutilide study, relative to control before administration) worked out at 47 ms. Also, the “effective atrial refractory period (AERP), mean value ± SD” value in test [1] (remodeled atria (induced AF 1 to 4 days), 7 goats, cycle length 400 ms, same infusion scheme with ibutilide) worked out at 160 ± 16 ms. The “effect … compared with normal atrium” value in test [1] was “markedly greater”. Also, the “doses of the compound of example 1 that brought about cardioversion / termination of the atrial fibrillation” value in test [2] (goat of table 3, monotherapy, or combination with ibutilide 2 mg/kg) is 10 mg per kg of bodyweight per ho. In test [2], the “effect on the AFCL by the substance” value is reported as “dose-dependent increase” and the “cardioversion / termination … on its own” value is listed as “not to cardioversion”. In addition, the “dose of the Kv1.5 blocker of example 1 leading to cardioversion / termination of persistent fibrillation” value in test [2] (summary in description, combination with very low doses (for example 10 μg/kg) of the IKr channel blocker) came out at 10 mg/kg.

For the compound `CCCCCCCN(CC)CCCC(O)c1ccc(NS(C)(=O)=O)cc1.O=C(O)/C=C/C(=O)O` (centres unmarked) [Ibutilide], in test [1] (remodeled atria, n=7 goats, ibutilide study), the “prolongation of the AERP” value was found to be 5 ms. Moreover, the “effect … compared with normal atrium” value in test [1] was “markedly lower”. Further, in test [2], the “effect on the AFCL by the substance” value is on record as “very small increase” and the “cardioversion / termination … on its own” value was “not to a termination of the fibrillation”. Moreover, the “effect on the AFCL by the substance” value in test [2] (listed as ibutilide) is reported as “slight prolongation”.
